Experimental data taken from patent publication US10308617B2, “Triazole benzamide derivatives and the compositions and methods of treatment regarding the same” (An2H Discovery Limited, priority 2016, dated 2019).

Target: T1, Parkin ligase (Homo sapiens, UniProt O60260)
T1 sequence (O60260 1-465): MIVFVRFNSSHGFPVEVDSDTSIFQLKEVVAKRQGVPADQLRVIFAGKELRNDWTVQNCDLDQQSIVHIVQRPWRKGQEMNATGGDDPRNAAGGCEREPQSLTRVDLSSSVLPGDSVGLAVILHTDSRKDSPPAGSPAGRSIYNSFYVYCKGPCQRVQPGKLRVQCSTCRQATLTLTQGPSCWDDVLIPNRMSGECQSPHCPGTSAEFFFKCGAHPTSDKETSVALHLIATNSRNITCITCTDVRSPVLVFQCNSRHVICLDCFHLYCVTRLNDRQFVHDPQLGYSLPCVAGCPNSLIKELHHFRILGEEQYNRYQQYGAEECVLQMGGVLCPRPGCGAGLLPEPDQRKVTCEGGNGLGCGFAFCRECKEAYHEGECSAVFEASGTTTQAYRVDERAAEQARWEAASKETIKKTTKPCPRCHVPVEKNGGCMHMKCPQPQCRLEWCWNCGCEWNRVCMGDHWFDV
Assay: Activity-Based Probe Assay using an Ubiquitin vinyl sulfone probe (TR-FRET)
Format: biochemical
Conditions: Parkin activation, HA-Ub-VS probe, heat activated Parkin; read-out: Probe Assay EC50 (μM) [Example 2]
Description: An Ubiquitin vinyl sulfone probe can be used that irreversibly binds to the active site cysteine of Parkin ligase. Covalent attachment of the probe to the Parkin can be monitored by TR-FRET. Candidate activator compounds can be identified by increasing the activity of Parkin ligase due to an increase in TR-FRET signal. Screening for activating compounds can be distinguished from the controls as follows: • 100% activation signal=Heat activated Parkin+100 nM control activator in DMSO. • 0% activation signal=Heat activated Parkin+DMSO only. • Parkin activators can be identified by an increase of the 0% activation signal TR-FRET signal.
• Assay Plate: White 384 well plate (Corning 3572) • Enzyme: Parkin-His tagged 203 μM (10.5 mg/ml) • Probe: Ubiquitin vinyl-sulfone (HA-Ub-VS Boston Biochem U-212) • DMSO: DMSO (Sigma cat # D4540-100ML) • Reaction Buffer: 50 mM HEPES (pH 8.5), 150 mM NaCl, 0.01% Tween 20, 0.1% BSA • Detection Buffer: 50 mM HEPES (pH 8.5), 150 mM NaCl, 0.01% Tween 20, 0.1% BSA, 800 mM KF • Detection Reagent A: 2.6 nM Anti-6HIS-Eu cryptate and 40 nM Anti-HA-XL665 in detection buffer • Eu cryptate: Anti-6HIS-Eu cryptate (CisBio 61HISKLA) • XL665: Anti-HA-XL665 (CisBio 610HAXLA) Enzyme Reaction (15 min pre incubation Parkin with activator only) • Parkin: 40 nM • HA-Ub-VS Probe: 70 nM • Activator/DMSO: 2× Activator/2% DMSO • Reaction time: 60 minutes • Temperature: 22° C. • Total volume: 10 μl reaction Detection Reaction • Take 10 μl of Enzyme Reaction above and add 10 μl detection Reagent A under the following conditions: • Reaction time: 60 minutes • Temperature: 22° C. • Total volume: 20 μl
Assay procedure (Using HP D-300 compound dispenser and Bravo for the operation): • 1) Heat activate Parkin in reaction buffer (500 μl/1.5 ml tube: Eppendorf Thermomixer 5 minutes, 400 rpm at 58° C. and put on ice until needed). • 2) Load assay plate wells with 4.8 μl 84.5 nM Parkin in reaction buffer by use of Bravo. • 3) Deliver 0.2 μl 200× activator candidates in DMSO by use of HP D-300 compound dispenser. Highest 200× concentration=[…] and then twofold dilutions. • 4) Spin 1000 rpm, 2 minutes, at room temp. • 5) Incubate plate for 15 minutes at room temp. • 6) Add 5 μl 140 nM HA-Ub-VS Probe in reaction buffer by use of Bravo. • 7) Spin 1000 rpm, 2 minutes, at room temp. • 8) Incubate plate for 60 minutes at room temp. • 9) Add 10 μl 2.6 nM Anti-6HIS-Eu cryptate and 40 nM Anti-HA-XL665 in detection buffer. • 10) Spin 1000 rpm, 2 minutes, at room temp. • 11) Incubate plate for 60 minutes at room temp. • 12) Read plates on Perkin Elmer Envision instrument with the following parameters: • LANCE dual laser protocol loaded into the Envision® software • Top Mirror: LANCE/DELFIA Duel/Bias (Bar code 446) • Emission Filter: APC 665 EM (Bar code 205) • 2nd Emission Filter: Europium 615 EM (Bar code 203) • Read 655 nm (channel 1) and 615 nm (channel 2) wavelengths on Envision®
Data Analysis: The Data can be read in CSV files. There are two tables in those CSV files, which are the values of 655 nm (channel 1) and 615 nm (channel 2) wavelengths respectively. The data is converted to an HTRF Ratio=(Channel 1/Channel 2)*10,000
The average of all the 0 uM controls (DMSO only)=BKGD (Background—0% activation). Subtract BKGD from each HTRF Ratio value=HTRF-BKGD. The average of all the […] 100 nM control activator in DMSO controls=Max (100% activation). The following equation is then used to calculate % Activation for each well/candidate as follows: % Activation=(HTRF-BKGD/Max)*100.
Graphpad Prisim was used with Transform X values: X=Log(X) and nonlinear regression (dose-response-stimulation): Log(agonist) vs Response—variable slope (four parameters) with constrains set to Bottom=0 and Top=100.
The Activity-Based Probe Assay was performed with various compounds in Tables 1-3.

| Structure (SMILES) | EC50 |
| --- | --- |
| c1ccc(-n2nc(-c3ccccn3)nc2Nc2ncnc3ccccc23)cc1 [Compound U2] | 22 µM |
| O=C(Nc1nc(NC(=O)c2cccc([N+](=O)[O-])c2)n(-c2ccccc2)n1)c1ccccc1 [Compound V1] | > 100 µM |
| Cc1ccccc1C(=O)Nc1nc(C2CCOCC2)nn1-c1ccccc1 [Compound V2] | > 100 µM |
| O=C(Nc1nc(NC(=O)c2ccco2)n(-c2ccccc2)n1)c1ccccc1 [Compound W1] | 10.4 µM |
| Cc1ccccc1C(=O)Nc1nc(NC(=O)c2ccccc2C)n(C(C)C)n1 [Compound W2] | > 100 µM |
| O=C(Nc1nc(NC(=O)c2ccccc2)n(-c2ccc(-c3ccccc3)cc2)n1)c1ccccc1 [Compound X1] | 62 µM |
| Cc1ccccc1C(=O)Nc1nc(NC(=O)c2ccccc2C)n(-c2ccccn2)n1 [Compound X2] | > 100 µM |
| O=C(Nc1nc(-c2ccccn2)nn1-c1ccccc1)c1ccccc1 [Compound Y1, N-(1-phenyl-3-(pyridin-2-yl)-1H-1,2,4-triazol-5-yl)benzamide] | 2 µM |
| O=C(Nc1nc(NC(=O)c2ccccc2)n(-c2ccc(OC(F)(F)F)cc2)n1)c1ccccc1 [Compound Z1] | 1 µM |
| O=C(Nc1nc(NC(=O)c2ccc(I)cc2)n(-c2ccccc2)n1)c1ccc(I)cc1 [D] | > 100 µM |
| CN(C(=O)c1ccccc1)c1nc(NC(=O)c2ccccc2)n(-c2ccccc2)n1 [G] | > 100 µM |
| O=C(Nc1nc(Nc2ncnc3ccccc23)nn1-c1ccccc1)c1ccccc1 [I] | > 100 µM |
| CN(C(=O)c1ccccc1)c1nc(N(C)C(=O)c2ccccc2)n(-c2ccccc2)n1 [J] | > 100 µM |
| Cc1ccccc1-n1nc(NC(=O)c2ccccc2)nc1NC(=O)c1ccccc1 [M] | > 100 µM |
| O=C(Nc1nc(-c2ccccn2)nn1-c1ccccc1)c1ccccc1 [T] | > 100 µM |
| O=C(Nc1nc(Nc2nccc3ccccc23)n(-c2ccccc2)n1)c1ccccc1 [U] | > 100 µM |
| CN(C(=O)c1ccccc1)c1nc(NC(=O)c2ccccc2)nn1-c1ccccc1 [V] | > 100 µM |
| CCN(CC)c1nc(Nc2nc(NC(=O)c3ccccc3)nn2-c2ccccc2)c2ccccc2n1 [W] | > 100 µM |
| CCN(CC)c1nc(Nc2nc(NC(=O)c3ccccc3)nn2-c2ccccc2)nc2ccccc12 [X] | > 100 µM |
| O=C(Nc1nc(Nc2ncnc3ccccc23)n(-c2ccccc2)n1)c1ccco1 [Z] | 9.1 µM |
